In general, IC50 refers to the concentration that inhibits the measured activity by half. As usually defined, the pEC50 is −log10 of the EC50, conventionally taken in molar units. A lower pEC50 goes with a large EC50. What is called pIC50 is the negative decadic logarithm of the IC50, by convention in mol/L. A lower pIC50 goes with a high IC50.

The source of these data is US20250129101A1, “Compound, Pharmaceutical Composition Comprising the Same and Method for Treating Cancer Using the Same” (NATIONAL TSING HUA UNIVERSITY, priority 2023, published 2025).

For one series, the system named is 4T1 R4 cells. Put plainly: Cell viability assay, 4T1 R4 cells. The conditions noted are these: for CI (combination index), MTA with 7S9: 2 μM 7S9, Chou and Talalay method; for IC50: 72 hr; for Fold change in chemosensitivity (IC50 single / 7S9 combination): 2 μM 7S9. The class given is cell-based, mouse. The method, then: (§1) MCF-7, MDA-MB-231, MDA-MB-468, Hs578T, 4T1, and HeLa cell lines stably expressing H2B-mCherry and eGFP-tubulin (kindly provided by Dr. Anthony A. Hyman, Max-Planck-Institute for Molecular Cell Biology and Genetics, Dresden, Germany) were cultured in high-glucose Dulbecco's Modified Eagle Medium (DMEM). SK-BR-3 cells were cultured in McCoy's Modified 5a Medium. Hs578T cells were cultured in high-glucose DMEM supplemented with an additional 0.01 mg/mL bovine insulin. […] All mentioned media were supplemented with 10% fetal bovine serum (Gibco) and 1% Penicillin/Streptomycin (Corning), and cells were incubated at 37° C. in a humidified atmosphere containing 5% CO2. HEK293 cells were cultured in HE300 medium (GMEP incorporated, Japan) and maintained in suspension culture with 125 rpm and 8% CO2.
(§2) The cancer cells were cultured in a 96-well plate at a confluence of 1000-2000 cells/well with indicated drugs for specific days. When the time was up, the culture medium in the plate was aspirated and replaced with a prepared CellTiter-Glo reagent/DMEM mixture (1:1 mix of CellTiter-Glo reagent and serum-supplemented DMEM). After incubation for 10 min, the luminescence (proportional to the number of living cells) was measured with an ELISA plate reader to determine the cell viability.

In a further series the test system is 4T1 R8 cells. Put plainly: Cell viability assay, 4T1 R8 cells. The class given is cell-based, mouse. Particulars: for CI (combination index), MTA with 7S9: 2 μM 7S9, Chou and Talalay method; for IC50: 72 hr; for Fold change in chemosensitivity (IC50 single / 7S9 combination): 2 μM 7S9. The method, then: as §1, §2
The target in another series is T1, KIF2C (Homo sapiens, UniProt Q99661).
T1 construct: KIF2C (216-598 a.a.); 6xHis (C); made in house; host or cells: E. coli BL21 (DE3), pET-28a
T1 sequence (Q99661 216-598): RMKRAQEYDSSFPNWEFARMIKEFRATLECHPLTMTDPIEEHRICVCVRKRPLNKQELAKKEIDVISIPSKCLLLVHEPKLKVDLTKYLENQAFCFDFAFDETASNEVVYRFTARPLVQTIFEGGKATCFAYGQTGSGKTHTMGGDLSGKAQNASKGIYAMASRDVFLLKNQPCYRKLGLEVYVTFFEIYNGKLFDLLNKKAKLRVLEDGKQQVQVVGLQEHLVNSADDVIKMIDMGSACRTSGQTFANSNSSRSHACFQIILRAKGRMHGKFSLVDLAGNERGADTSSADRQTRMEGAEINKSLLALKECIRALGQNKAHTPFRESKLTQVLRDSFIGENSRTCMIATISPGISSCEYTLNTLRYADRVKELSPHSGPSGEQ
Put plainly: In vitro validation: KIF2C kinesin activity, malachite green-based phosphate colorimetric assay. The format is biochemical. The conditions noted are these: for pEC50: concentration that inhibits 50% of KIF2C activity. Put shortly:
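KIF2C sN+M construct (aa 216-598, C-terminal 6×His, E. coli-expressed) ATPase activity with microtubules from porcine brain tubulin or HEK293 (293Fs) cells in BRB80 (80 mM PIPES pH 6.8, 1 mM GTP, 10% DMSO), 37° C for 2 hr. Released phosphate detected by malachite green reagent, 10 min, A650.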

For the next series, the system named is MDA-MB-231 cells. As to the kind of experiment: Cell validation: cytotoxicity in MDA-MB-231 cells (CellTiter-Glo). The format is cell-based. Particulars: for pIC50: Homo sapiens, cytotoxicity in MDA-MB-231 cells. In outline: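 MDA-MB-231 cells were seeded at 2000 cells/well and exposed to compounds for the specified number of days. Medium was then replaced with a 1:1 CellTiter-Glo reagent/serum-supplemented DMEM mix for 10 min, and viability was read as luminescence, proportional to living cell number.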

Series [1] concerns MDA-MB-231 R, MDA-MB-231 S, 4T1 S1, R4, and R8 cells. Put plainly: Cell viability of indicated cell lines, DHTP or 7S9 for 72 hr. The format is cell-based. Particulars: MDA-MB-231 R. The method, then: as §2
The next series has as its target T2, KIF2A (Homo sapiens, UniProt O00139).
T2 construct: KIF2A (181-562 a.a.); 6xHis (C); made in house; host or cells: E. coli BL21 (DE3), pET-28a
As to the kind of experiment: In vitro kinesin assay, KIF2A. The format is biochemical. The conditions noted are these: 50 μM (FIG. 4I). As for the experimental part: (§3) In vitro kinesin activity was measured using malachite green-based phosphate colorimetric assay (BioVision). […] The microtubules from porcine brain tubulin (Cytoskeleton) or purified from HEK293 cells in Free-style medium (293Fs) were dissolved in the BRB80 buffer (80 mM PIPES pH 6.8, 1 mM EGTA, 1 mM MgCl2, 1 mM GTP, 1 mM DTT, and 10% DMSO) at 37° C. for 2 hr. Phosphates released from kinesin-mediated ATP hydrolysis was measured by adding 30 μL of the phosphate colorimetric reagent (BioVision), incubated for 10 min, and then measured with absorbance at 650 nm.
(§4) Constructs of sN+M regions of KIF2C (216-598 a.a.), KIF2A (181-562 a.a.) and KIF2B (171-553 a.a.) with C-terminal 6×His tag were subcloned into pET-28a vector and expressed in BL21 (DE3) E. coli cells (Novartis) cultured in Luria-Bertani medium supplemented with 50 ug/mL kanamycin at 37° C. After induction with 0.8 mM IPTG for 18 hr at 20° C., the cells were pelleted by centrifugation at 6000 rpm for 30 min at 10° C. The collected pellets were resuspended in 30 mL of buffer A (20 mM Tris-HCl pH 7.5, 500 mM NaCl, 10 mM imidazole, 1% CHAPS, and 1 mM PMSF) and next subjected to a high-pressure homogenizer (EmulsiFlex-C3) for cell lysis. After removing the cell debris by centrifugation at 13000 rpm for 30 min at 10° C., the recombinant Kinesin-13 in the supernatant was purified using nickel affinity chromatography. […]

Another series addresses T3, KIF2B (Homo sapiens, UniProt Q8N4N8).
T3 construct: KIF2B (171-553 a.a.); 6xHis (C); made in house; host or cells: E. coli BL21 (DE3), pET-28a
Put plainly: In vitro kinesin assay, KIF2B. Particulars: 50 μM (FIG. 4I). The class given is biochemical. The method, then: as §3, §4

The next series concerns 4T1 cells. Put plainly: Flow cytometry analysis of cell membrane penetration ability. The format is cell-based, mouse. Particulars: 2 hr of drug treatment. The method, then: To quantify the cell membrane penetration ability of different DHTP analogs, 4T1 cells were collected by trypsin after 2 hr of drug treatment and then transferred into microcentrifuge tubes. 4T1 cells were then resuspended into the FACS buffer (1% FBS, 2 mM EDTA, and 0.05% NaN3 in PBS). After two times of FACS buffer rinsing, these samples were detected by flow cytometry (Cyto FLEX™ FLOW Cytometer). The KO525 (405 nm laser; 525 nm filter) channel was used to detect DHTP and 7S9.
For orientation: A flow cytometer gives signals particle by particle.

For series [2], the system named is HeLa cells expressing H2B-mCherry and eGFP-tubulin. As to the kind of experiment: Live-cell imaging of intracellular microtubule distribution. The class given is cell-based. As for the experimental part: For the microtubule distribution analysis, HeLa cell line stably expressing H2B-mCherry and eGFP-tubulin (a kind gift from Anthony A. Hyman, Max-Planck-Institute for Molecular Cell Biology and Genetics, Dresden, Germany) were treated with KIF2C inhibitors (10 μM DHTP or 10 μM 7S9) during imaging. Live-cell imaging was conducted on a Nikon T1 inverted fluorescence microscope (Nikon) with a 60× oil objective (Nikon), a Prime camera (Photometrics), and 37° C., 5% CO2 heat stage (Live Cell Instrument). Microtubule morphological changes were imaged at 3-min intervals. Images were obtained using ImageJ software processed with Gaussian Blur to remove the noise.

Where [3] appears, read: Mus musculus, drug alone, read-out: IC50 (nM), Single.
Where [4] appears, read: MTA with 2 μM 7S9, read-out: IC50 (nM), Combination.

pEC50, pIC50: −log10 of the molar value. Where two headings read alike, the source gives them in different places. Where only a bound is given, the exact number is not on record here.

T2 sequence (O00139 181-562): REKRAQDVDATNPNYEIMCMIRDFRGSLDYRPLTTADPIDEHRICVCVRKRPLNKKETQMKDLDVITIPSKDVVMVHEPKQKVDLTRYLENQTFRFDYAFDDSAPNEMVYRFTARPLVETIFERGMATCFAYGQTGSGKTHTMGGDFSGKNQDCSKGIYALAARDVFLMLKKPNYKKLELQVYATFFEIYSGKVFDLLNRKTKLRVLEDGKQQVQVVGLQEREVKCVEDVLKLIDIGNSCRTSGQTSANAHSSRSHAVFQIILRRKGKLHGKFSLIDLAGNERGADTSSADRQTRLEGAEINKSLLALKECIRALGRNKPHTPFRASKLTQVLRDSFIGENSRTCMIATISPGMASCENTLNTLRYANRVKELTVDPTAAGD
T3 sequence (Q8N4N8 171-553): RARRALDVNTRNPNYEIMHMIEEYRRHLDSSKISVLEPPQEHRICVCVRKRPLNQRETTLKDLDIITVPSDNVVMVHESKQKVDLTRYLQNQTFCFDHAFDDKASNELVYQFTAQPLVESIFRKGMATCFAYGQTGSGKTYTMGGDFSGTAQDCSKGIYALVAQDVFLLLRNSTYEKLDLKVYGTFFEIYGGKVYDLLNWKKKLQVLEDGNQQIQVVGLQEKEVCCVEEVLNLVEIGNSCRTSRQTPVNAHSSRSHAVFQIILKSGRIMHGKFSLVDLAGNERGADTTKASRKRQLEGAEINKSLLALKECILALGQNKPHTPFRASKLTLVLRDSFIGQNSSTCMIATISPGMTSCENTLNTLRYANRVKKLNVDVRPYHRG

Take `CC(=O)O[C@@]12CO[C@@H]1C[C@H](O)[C@@]1(C)C(=O)[C@H](O)C3=C(C)[C@@H](OC(=O)[C@H](O)[C@@H](NC(=O)OC(C)(C)C)c4ccccc4)C[C@@](O)([C@@H](OC(=O)c4ccccc4)[C@H]21)C3(C)C` [Docetaxel, docetaxel]: the “CI (combination index), MTA with 7S9” value in the series on 4T1 R4 cells was 0.45; with 4T1 R8 cells it was 0.50. Also, the IC50 was 358 nM with 4T1 R4 cells (setting [3]) and 208 nM with 4T1 R8 cells (setting [3]).
As for `CCC1=C[C@@H]2CN(C1)Cc1c([nH]c3ccccc13)[C@@](C(=O)OC)(c1cc3c(cc1OC)N(C)[C@H]1[C@@](O)(C(=O)OC)[C@H](OC(C)=O)[C@]4(CC)C=CCN5CC[C@]31[C@@H]54)C2` [Vinorelbine, vinorelbine], the “Fold change in chemosensitivity (IC50 single / 7S9 combination)” value was found to be 69 in the series with 4T1 R4 cells and 43 in the series on 4T1 R8 cells. Also, the “CI (combination index), MTA with 7S9” value came out at 0.46 in the series on 4T1 R4 cells and 0.51 in the series on 4T1 R8 cells. Moreover, the IC50 with 4T1 R4 cells (setting [3]) amounted to 159 nM; with 4T1 R8 cells (setting [3]), 104 nM.
As for `CC1=C(C(=O)OC(C)C)C(c2ccc(Cl)cc2)n2c(s/c(=C\c3ccc(OCC(=O)O)cc3)c2=O)=N1` (stereo not drawn) [1S0 (1), reference compound], the “inhibitory effect against KIF2C (in words)” value on KIF2C (50 μM (FIG. 4I)) is given as “inhibited all three members of the kinesin-13 family”. At KIF2C (100 μM (FIG. 4B)), the “inhibition of KIF2C kinesin activity (in words)” value was “could inhibit KIF2C kinesin activity”. The pEC50 on KIF2C was more than 5.00. In the series on MDA-MB-231 cells (72 hr), the “cytotoxicity on MDA-MB-231 cells (in words)” value is on record as “not cytotoxic”. In the series with MDA-MB-231 cells, the pIC50 was less than 4.30. In addition, the “cytotoxicity (in words)” value in [1] is given as “not cytotoxic”. Moreover, at KIF2A, the “inhibitory effect against KIF2A (in words)” value is recorded as “inhibited all three members of the kinesin-13 family”. Further, at KIF2B, the “inhibitory effect against KIF2B (in words)” value was “inhibited all three members of the kinesin-13 family”. Also, in the series on 4T1 cells, the “cell penetration, fluorescence signal at 510 nm emission (in words)” value is “no fluorescence signals”. Besides, the “intracellular microtubule distribution phenotype (in words)” value in [2] is “tubulin aggregation phenotype was not detected”.
As for `C=C1C[C@@H]2CC[C@@]34C[C@H]5O[C@H]6[C@@H](O3)[C@H]3O[C@H](CC[C@@H]3O[C@H]6[C@H]5O4)CC(=O)C[C@@H]3[C@@H](OC)[C@@H](C[C@H](O)CN)O[C@H]3C[C@H]3O[C@@H](CC[C@@H]1O2)C[C@@H](C)C3=C` [Eribulin, eribulin], the entries for the “Fold change in chemosensitivity (IC50 single / 7S9 combination)” value with 4T1 R4 cells and in the series on 4T1 R8 cells were 30 and 21, respectively. Moreover, the entries for the “CI (combination index), MTA with 7S9” value in the series with 4T1 R4 cells and in the series with 4T1 R8 cells were 0.48 and 0.54, respectively. Further, the IC50 in the series on 4T1 R4 cells (setting [4]) was 14.5 nM; in the series with 4T1 R4 cells (setting [3]) it was 442 nM; in the series on 4T1 R8 cells (setting [4]) it was 13.6 nM; in the series on 4T1 R8 cells (setting [3]) it was 284 nM.
In the case of `C/C(=C\c1csc(C)n1)[C@@H]1C[C@@H]2O[C@]2(C)CCC[C@H](C)[C@H](O)[C@@H](C)C(=O)C(C)(C)[C@@H](O)CC(=O)N1` [Ixabepilone, ixabepilone], the figures for the IC50 with 4T1 R4 cells (setting [3]) and in the series on 4T1 R8 cells (setting [3]) were 358 nM and 234 nM, respectively.
`CC1=C(C(=O)OC(C)C)C(c2ccc(Cl)cc2)n2c(s/c(=C\c3ccc(OCC(=O)N4CCN(C5CCCCC5)CC4)cc3)c2=O)=N1` (stereo not drawn) [22S0 (17), propan-2-yl (2Z)-5-(4-chlorophenyl)-2-(4-(2-(4-cyclohexylpiperazin-1-yl)-2-oxoethoxy)benzylidene)-7-methyl-3-oxo-2,3-dihydro-5H-[1,3]thiazolo[3,2-a]pyrimidine-6-carboxylate]: the pEC50 on KIF2C was less than 4.00. In the series with MDA-MB-231 cells, this compound had a pIC50 of less than 4.30.
Compound `CC1=C(C(=O)OC(C)C)C(c2ccc(Cl)cc2)n2c(s/c(=C\c3ccc(OCC(N)=O)cc3)c2=O)=N1` (stereo not drawn) [8S0 (15), isopropyl (Z)-2-(4-(2-amino-2-oxoethoxy)benzylidene)-5-(4-chlorophenyl)-7-methyl-3-oxo-2,3-dihydro-5H-thiazolo[3,2-a]pyrimidine-6-carboxylate] had a pEC50 at KIF2C of less than 4.00. For the same compound, the pIC50 in the series on MDA-MB-231 cells is less than 4.30.
In the same order, the values of `CCOC(=O)C1=C(C)N=c2s/c(=C\c3ccc(OCC(=O)O)cc3)c(=O)n2C1c1ccc(Cl)cc1` (stereo not drawn) [12S0 (79), (Z)-2-(4-((5-(4-chlorophenyl)-6-(ethoxycarbonyl)-7-methyl-3-oxo-5H-thiazolo[3,2-a]pyrimidin-2(3H)-ylidene)methyl)phenoxy)acetic acid] are more than 4.70 and less than 4.30.
